According to ChEMBL document CHEMBL1201862, “PubChem BioAssay data set” (2004):
Structures can show the parent of a compound that is named as a salt. Activity calls are given as the source filed them.

Experiments:
[1] = target: 26S proteasome non-ATPase regulatory subunit 14 (Homo sapiens, UniProt O00487); experiment: inhibition of proteasome subunit RPN11 – biochemical, fluorescence polarization, uHTS hits, confirmation (AID 602368); assay type: functional
Prothrombin = Prothrombin (Bos taurus, UniProt P00735); experiment: thrombin inhibition, dose response, biochemical, fluorescence polarization, uHTS hits (AID 602369); assay type: functional
[2] = target: 72 kDa type IV collagenase (Homo sapiens, UniProt P08253); experiment: Dose Response validation of uHTS RPN11 inhibitor hits using a MMP-2 Fluorescence assay.; assay type: functional
SUMO-activating enzyme = SUMO-activating enzyme (Homo sapiens, UniProt Q9UBT2); experiment: inhibitors of in vitro SUMOylation cascade, primary screen, biochemical, HTRF, uHTS (AID 2006); assay type: protein-complex assay
[3] = Luminescence Cell-Based Dose Confirmation HTS to Identify Activators of 5'UTR Stem-Loop Driven Alpha-Synuclein mRNA Translation in H4 Neuroglioblastoma Cells. [Related pubchem assays: 1829 (Project Summary), 1814 (Primary HTS)]; assay type: functional
HeLa = experiment: HeLa cell cytotoxicity, dose response, cytotoxicity control for MITF activator project, CellTiter-Glo luminescence, cherry-pick samples (AID 540259); assay type: functional, cell-based; details: Homo sapiens
[4] = Luminescence Cell-Based Dose Response HTS to Identify Activators of Luciferase Translation or Activity in H4 […] Cells. [Related pubchem assays: 1829 (Project Summary), 1814 (Primary HTS)]; assay type: functional
H4 = experiment: Luminescence Cell-Based Dose Response HTS to Identify Activators of 5'UTR Stem-Loop Driven Prion Protein mRNA Translation in H4 Neuroglioblastoma Cells. [Related pubchem assays: 1829 (Project Summary), 1814 (Primary HTS)]; assay type: functional; details: Homo sapiens
[5] = target: T1, Oxysterols receptor LXR-beta (Homo sapiens, UniProt P55055); assay type: functional, cell-based;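 note: agonist activity at LXR measured by a cell-based luminescence readout across a dose range, run as a counterscreen for daf-12 agonists; HEK293 cells with Gal4-LXR fusion and GAL4-driven luciferase reporter; potency for activation of Gal4-LXR reporter so compounds are agonists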
T1 sequence (P55055 whole entry): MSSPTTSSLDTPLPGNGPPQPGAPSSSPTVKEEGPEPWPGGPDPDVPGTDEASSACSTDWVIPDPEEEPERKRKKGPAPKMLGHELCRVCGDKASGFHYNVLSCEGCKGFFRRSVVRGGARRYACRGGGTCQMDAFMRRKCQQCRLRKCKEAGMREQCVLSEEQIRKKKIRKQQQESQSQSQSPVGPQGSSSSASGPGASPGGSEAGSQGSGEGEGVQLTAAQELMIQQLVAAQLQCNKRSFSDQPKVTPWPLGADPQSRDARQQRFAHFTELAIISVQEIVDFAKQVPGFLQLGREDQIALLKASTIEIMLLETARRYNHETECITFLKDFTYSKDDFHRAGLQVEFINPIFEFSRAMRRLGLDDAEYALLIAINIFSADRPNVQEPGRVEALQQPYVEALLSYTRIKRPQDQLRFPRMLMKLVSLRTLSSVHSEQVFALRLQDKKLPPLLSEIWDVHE

[6] = CAL PDZ domain peptide-binding inhibitors, dose response, biochemical, fluorescence polarization, untagged CAL PDZ, cherry-pick, set 2 (AID 602254); assay type: functional
[7] = target: Neurotensin receptor type 1 (Homo sapiens, UniProt P30989); assay type: functional;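 note: Image-based confirmatory dose-response assay measuring agonist activity at NTR1; NTR1-expressing U2OS osteosarcoma cells imaged for beta-arrestin GFP spot formation; agonist potency where compounds increase beta-arrestin recruitment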
[8] = Luminescence Cell-Based Dose Retest to Confirm Inhibitors of Cancer Stem Cells. [Related pubchem assays (depositor defined):AID2717, AID2721]; assay type: functional; details: Homo sapiens
[9] = nonselective inhibitors of cellular cAMP signaling, dose response, counter-screen for MC4R biased antagonist project, cell-based, TR-FRET cAMP detection (AID 602305); assay type: functional;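 note: U2OS cells stimulated with forskolin near its EC80 as the cAMP inducer; potency is for inhibition of forskolin-stimulated cAMP signaling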
INS1 = experiment: beta cell apoptosis inhibitors, cytokine rescue, dose response, luminescence, retest (AID 449756); assay type: functional, cell-based; details: Rattus norvegicus;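 note: cell death triggered by IL-1 beta plus TNF-alpha plus IFN-gamma mixture; protective hits raise ATP signal compared with cytokine alone wells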
[10] = cytotoxicity in HEK-293T cells, dose response, cytotoxicity control for BCR NF-kB inhibitor project, luminescence, B-cell screen hits (AID 489021); assay type: functional, cell-based;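 note: HEK-293T cells carrying an NF-kB luciferase reporter; cells exposed to compound for about 14 hours before viability readout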
HEK293 = experiment: inhibitors of LMP1-driven NF-kB reporter, dose response, cell-based, HEK293, luciferase, cherry-pick (AID 588343); assay type: functional; details: Homo sapiens
Melanocortin receptor 4 = Melanocortin receptor 4 (Homo sapiens, UniProt P32245); experiment: MC4R antagonist potency on cAMP, dose response, cell-based, TR-FRET, biased antagonists (AID 602298); assay type: functional;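 note: antagonist potency against agonist-stimulated cAMP production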
Sequence of Melanocortin receptor 4 (P32245 whole entry): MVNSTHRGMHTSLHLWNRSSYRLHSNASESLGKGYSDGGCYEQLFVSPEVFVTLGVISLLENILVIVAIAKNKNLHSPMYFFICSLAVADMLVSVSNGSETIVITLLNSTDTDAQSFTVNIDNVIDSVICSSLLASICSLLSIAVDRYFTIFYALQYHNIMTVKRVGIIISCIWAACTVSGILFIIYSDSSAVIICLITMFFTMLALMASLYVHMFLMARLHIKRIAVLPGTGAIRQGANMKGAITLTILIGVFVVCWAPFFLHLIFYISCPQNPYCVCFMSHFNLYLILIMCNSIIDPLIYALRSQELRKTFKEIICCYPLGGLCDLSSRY

Sequence of 26S proteasome non-ATPase regulatory subunit 14 (O00487 whole entry): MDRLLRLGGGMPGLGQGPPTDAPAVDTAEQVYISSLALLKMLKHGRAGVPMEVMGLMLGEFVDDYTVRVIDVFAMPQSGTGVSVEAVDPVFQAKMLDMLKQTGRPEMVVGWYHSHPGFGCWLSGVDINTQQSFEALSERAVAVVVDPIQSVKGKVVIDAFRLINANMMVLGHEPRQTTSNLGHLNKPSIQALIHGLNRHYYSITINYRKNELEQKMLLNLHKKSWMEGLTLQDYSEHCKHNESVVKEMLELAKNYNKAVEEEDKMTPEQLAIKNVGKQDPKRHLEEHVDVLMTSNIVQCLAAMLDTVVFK
Sequence of Neurotensin receptor type 1 (P30989 whole entry): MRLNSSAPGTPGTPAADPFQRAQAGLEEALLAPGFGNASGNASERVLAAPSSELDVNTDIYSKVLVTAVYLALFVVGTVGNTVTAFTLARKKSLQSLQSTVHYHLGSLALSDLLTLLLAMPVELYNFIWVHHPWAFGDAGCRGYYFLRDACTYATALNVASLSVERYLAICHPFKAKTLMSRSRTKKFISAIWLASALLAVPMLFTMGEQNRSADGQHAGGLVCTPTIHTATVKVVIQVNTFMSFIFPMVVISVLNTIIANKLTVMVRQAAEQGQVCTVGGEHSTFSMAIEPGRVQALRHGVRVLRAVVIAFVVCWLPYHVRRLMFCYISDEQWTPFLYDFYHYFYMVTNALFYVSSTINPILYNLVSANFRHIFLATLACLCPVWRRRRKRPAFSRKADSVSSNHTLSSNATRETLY
Sequence of 72 kDa type IV collagenase (P08253 whole entry): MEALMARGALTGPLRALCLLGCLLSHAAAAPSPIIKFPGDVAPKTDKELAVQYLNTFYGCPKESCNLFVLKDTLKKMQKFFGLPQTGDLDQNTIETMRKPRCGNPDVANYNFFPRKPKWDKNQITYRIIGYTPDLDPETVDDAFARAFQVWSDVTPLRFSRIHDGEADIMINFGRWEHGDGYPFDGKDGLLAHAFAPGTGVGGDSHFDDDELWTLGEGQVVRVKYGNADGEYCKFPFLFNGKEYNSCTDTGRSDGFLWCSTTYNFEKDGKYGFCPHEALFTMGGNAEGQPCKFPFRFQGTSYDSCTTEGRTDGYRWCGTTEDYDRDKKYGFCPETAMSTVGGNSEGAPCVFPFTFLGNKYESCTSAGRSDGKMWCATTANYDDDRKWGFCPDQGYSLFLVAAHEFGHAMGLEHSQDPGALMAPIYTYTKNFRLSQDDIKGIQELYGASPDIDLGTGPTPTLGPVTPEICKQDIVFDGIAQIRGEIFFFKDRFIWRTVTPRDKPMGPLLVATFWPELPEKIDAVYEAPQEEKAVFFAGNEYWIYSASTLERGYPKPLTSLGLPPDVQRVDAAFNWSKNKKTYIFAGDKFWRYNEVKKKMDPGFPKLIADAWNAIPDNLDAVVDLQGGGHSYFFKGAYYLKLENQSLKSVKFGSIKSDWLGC
Sequence of SUMO-activating enzyme (Q9UBE0 whole entry): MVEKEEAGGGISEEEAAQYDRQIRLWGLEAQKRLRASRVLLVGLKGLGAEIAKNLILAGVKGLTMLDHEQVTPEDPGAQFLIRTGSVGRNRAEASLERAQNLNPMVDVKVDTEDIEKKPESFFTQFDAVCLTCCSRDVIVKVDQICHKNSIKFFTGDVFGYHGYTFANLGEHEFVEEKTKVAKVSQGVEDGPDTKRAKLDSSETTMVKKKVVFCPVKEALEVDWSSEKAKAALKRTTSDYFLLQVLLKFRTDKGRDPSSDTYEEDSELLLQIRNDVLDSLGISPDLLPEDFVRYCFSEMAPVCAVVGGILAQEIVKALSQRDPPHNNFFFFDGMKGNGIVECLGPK
Sequence of SUMO-activating enzyme (Q9UBT2 whole entry): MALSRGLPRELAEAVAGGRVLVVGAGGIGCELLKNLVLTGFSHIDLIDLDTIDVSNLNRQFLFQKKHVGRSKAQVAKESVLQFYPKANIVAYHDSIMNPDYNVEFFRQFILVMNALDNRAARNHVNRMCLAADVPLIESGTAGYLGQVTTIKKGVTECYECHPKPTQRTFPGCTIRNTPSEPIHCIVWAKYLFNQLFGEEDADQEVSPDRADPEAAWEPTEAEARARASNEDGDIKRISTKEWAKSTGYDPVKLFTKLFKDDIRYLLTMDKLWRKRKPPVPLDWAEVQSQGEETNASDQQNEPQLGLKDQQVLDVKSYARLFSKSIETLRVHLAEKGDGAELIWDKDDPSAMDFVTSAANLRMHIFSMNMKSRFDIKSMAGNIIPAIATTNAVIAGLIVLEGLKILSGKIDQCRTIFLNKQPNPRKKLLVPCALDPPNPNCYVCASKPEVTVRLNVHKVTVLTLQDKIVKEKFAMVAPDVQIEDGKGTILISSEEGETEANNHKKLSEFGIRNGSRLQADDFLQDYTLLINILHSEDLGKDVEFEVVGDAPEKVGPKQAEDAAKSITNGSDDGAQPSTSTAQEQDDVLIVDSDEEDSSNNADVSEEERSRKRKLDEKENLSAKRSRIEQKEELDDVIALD

## Sc1nnc(-c2cc(-c3ccccc3)[nH]n2)n1/N=C/c1ccc(Cl)c(Cl)c1
[1]
  IC50: 8.54 µM (active)
Prothrombin
  IC50: > 100 µM (inactive)
[2]
  IC50: > 100 µM (inactive)
SUMO-activating enzyme
  IC50: 49.8 µM (active)

## Cc1nn(C(=O)c2cccs2)c(N)c1-c1ccccc1
[3]
  EC50: 13.7 µM (active)
HeLa
  AC50: 30.1 µM (active)
[4]
  EC50: 19 µM (active)
H4
  EC50: > 120 µM (not active)
[5]
  EC50: > 67.5 µM (inactive)

## Cc1cc2ccccc2n1CCNCc1c(C(=O)N2CCOCC2)nc2ccccn12
[6]
  AC50: 110 µM (active)

## CNC(=O)c1cc(Oc2ccc(NC(=O)Nc3ccc(Cl)c(C(F)(F)F)c3)cc2)ccn1 [SORAFENIB TOSYLATE]
[7]
  EC50: 14.6 µM (active)
[8]
  AC50: 2.04 µM (active)
[9]
  IC50: > 64.6 µM (inactive)
INS1
  AC50: 6.78 µM (active)
[10]
  IC50: 70.6 µM (inactive)
HEK293
  AC50: 1.6 µM (active)
Melanocortin receptor 4
  IC50: 4.48 µM (active)
